Experimental data reported in article PMC7307922 (Journal of Medicinal Chemistry, 2020).
Substitutions are numbered along the chain they refer to.

Legend:
hFFA3 [1] = biological target: T1, hFFA3 (Homo sapiens, UniProt O14843); assay: cell-based
T1 sequence (O14843 1-346): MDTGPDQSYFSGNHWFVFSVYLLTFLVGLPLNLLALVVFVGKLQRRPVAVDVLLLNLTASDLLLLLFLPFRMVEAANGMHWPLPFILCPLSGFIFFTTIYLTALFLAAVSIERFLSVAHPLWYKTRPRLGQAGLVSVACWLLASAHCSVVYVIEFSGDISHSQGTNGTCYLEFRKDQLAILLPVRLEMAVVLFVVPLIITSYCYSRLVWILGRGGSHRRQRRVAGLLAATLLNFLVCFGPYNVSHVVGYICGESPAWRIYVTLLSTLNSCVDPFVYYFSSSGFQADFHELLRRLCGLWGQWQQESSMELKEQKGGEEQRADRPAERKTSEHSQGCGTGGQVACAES
Method in brief: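 HEK293 Flp-In T-REx cells stably carrying FFA3-eYFP, expression induced overnight with doxycycline, 3000 cells/well; compounds co-incubated 1 h to inhibit 0.3 μM forskolin-induced cAMP, read with HTRF cAMP kit.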

hFFA3 Q131A = biological target: T2, hFFA3 Q131A (Homo sapiens, UniProt O14843, Q131A); assay: Potency at FFA3 mutant Q131A; assay type: cell-based
T2 sequence (O14843 1-346 Q131A): T1 sequence (O14843 1-346) with Q131A
Experimental: (§1) The previously published compound 1 was not affected by mutation of either R185A or R258A in the orthosteric binding site, and the compounds were therefore believed to be allosteric modulators. […] After the publication of the FFA1 crystal structure in complex with an allosteric agonist located in the TM region close to the intracellular site,[32] a homology model of hFFA3 was constructed using Modeller. […] Thus, additional docking of (R)-1 in this site were performed to find poses where Q131, but not R126, show a central role in binding. […] The narrow binding cavity around the core scaffold is in agreement with the restrained SAR observed for this series and the furan moiety pointing out of the binding cavity might explain the flexibility in substituents at this site (Figure 3c,d). Although Q131A impacts the potency of (R)-1 with high significance, the magnitude of the effect is lower than what would be generally expected for the removal of a hydrogen bond interaction; thus, additional studies are required to confirm the proposed binding site.

hFFA3 E112A = biological target: T3, hFFA3 E112A (Homo sapiens, UniProt O14843, E112A); assay: Potency at FFA3 mutant E112A; assay type: cell-based
T3 sequence (O14843 1-346 E112A): T1 sequence (O14843 1-346) with E112A
Experimental: as §1

hFFA3 R126A = biological target: T4, hFFA3 R126A (Homo sapiens, UniProt O14843, R126A); assay: Potency at FFA3 mutant R126A; assay type: cell-based
T4 sequence (O14843 1-346 R126A): T1 sequence (O14843 1-346) with R126A
Experimental: as §1

hFFA3 [2] = biological target: T1, hFFA3; assay: biochemical; settings: for GTPγS pEC50: hFFA3, mean of ≥3 independent experiments ± standard error
Experimental: The ligands were initially screened in a human FFA3-dependent [^35S]GTPγS binding assay as this assay reflects receptor-mediated activation of Gi/o proteins and is known to generally correlate well with ligand affinity.[30] Analogues of particular interest were tested further in a cAMP inhibition assay as this is an important downstream effect of Gi-activation. […] It is furthermore performed in whole cells, is more downstream, includes G protein signal amplification, and therefore better reflects a more natural ligand–receptor response.
Membranes were isolated from Flp-In T-REx HEK293 cells treated with 100 ng/mL doxycycline to induce receptor expression. Cells were washed with ice-cold phosphate-buffered saline and removed from dishes by scraping before being centrifuged for 5 min at 4 °C, 3000 rpm. Pellets were resuspended in TE buffer (75 mM Tris–HCl, 5 mM EDTA; pH 7.5) with the addition of a protease inhibitor mixture (Roche Applied Science, West Sussex, UK). This was then homogenized with a 5 mL hand-held homogenizer and subsequently centrifuged at 1500 rpm for 5 min at 4 °C, from which the supernatant was collected and further centrifuged at 50 000 rpm for 30 min at 4 °C. The resulting pellet was resuspended in TE buffer, and the protein content was measured using a BCA protein assay kit (Pierce, Fisher Scientific, Loughborough, UK).
Reactions were initiated with the addition of [^35S]GTPγS at 50 nCi per tube; reactions were terminated after 1 h of incubation at 25 °C by rapid filtration through GF/C glass filters using a 24-well Brandel cell harvester (Alpha Biotech, Glasgow, UK). Unbound radioligand was removed from filters by washing three times with ice-cold wash buffer (50 mM Tris–HCl, pH 7.4, and 10 mM MgCl2), and [^35S]GTPγS binding was determined by liquid scintillation spectrometry.

hFFA3 [3] = biological target: T1, hFFA3; set-up: expressed in transfected cells; host or cells: Flp-In T-REx HEK293 (membranes); method as in PMID 24870406; settings: previously characterized; cited from earlier work
[4] = efficacy relative to maximal response of propionate

| Compound | EC50 (hFFA3 [1]) [µM] | reduction of potency by mutation Q131A (hFFA3 Q131A; p < 0.001) [fold] | effect of mutation E112A on potency (hFFA3 E112A) | effect of mutation R126A on potency (hFFA3 R126A) | GTPγS pEC50 (hFFA3 [2]) | activity alone and with propionate (hFFA3 [3]) | GTPγS Emax (hFFA3 [2]; [4]) | cAMP Emax (hFFA3 [1]; [4]) | cAMP pEC50 (hFFA3 [1]; hFFA3, compound alone, mean of ≥3 independent experiments ± standard error) | effect of mutation Q131A on potency (hFFA3 Q131A) |
| --- | --- | --- | --- | --- | --- | --- | --- | --- | --- | --- |
| CC1=C(C(=O)Nc2ccccc2C)[C@H](c2ccco2)C2=C(CCCC2=O)N1 [(R)-1] | 0.295 | > 3 | did not affect | did not affect |  |  |  |  |  |  |
| CC1=C(C(=O)Nc2ccccc2C)C(c2ccccc2Br)C2=C(CCCC2=O)N1 (stereo not shown) [Compound 5] |  |  |  |  | nr^e | inactive alone but to act as a PAM of propionate |  |  |  |  |
| propionate [Compound C3, reference compound] |  |  | did not affect | did not affect | 4.97 ± 0.08 |  | 100 | 100 | 4.93 ± 0.10 | did not affect |
